Patent US7772241B2, “Variolin derivatives and their use as antitumor agents” (Pharma Mar S.A., priority 2001, dated 2010)
Like-named read-outs stand apart in the source and are kept apart here. One block for each compound: values may come before it.

What was measured:
A-549 = assay: Inhibition of cells growth by colorimetric (SRB) assay, A-549
How it was run: (§1)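 Human tumour cells seeded at 5×10^3/well in RPMI 1640 10% FBS, attached 18 h, then exposed 48 h to samples at 10 to 10^−8 μg/ml in DMSO/EtOH/PBS (0.5:0.5:99). Growth read by SRB staining after TCA fixation, OD 490 nm, triplicate wells; GI, TGI and LC derived.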

HT-29 = assay: Inhibition of cells growth by colorimetric (SRB) assay, HT-29
How it was run: as §1

[1] = Inhibition of cells growth by colorimetric (SRB) assay, HMEC1; conditions: human, HMEC1 cells, LC50 H-MEC-1, SRB assay, 48 hours exposure
Excerpt: (§2) The finality of these assays is to interrupt the growth of a “in vitro” tumor cell culture by means a continued exhibition of the cells to the sample to be testing.
(§3) This form of the assay employs 96 well cell culture microplates of 9 mm diameter (Faircloth, 1988; Mosmann, 1983). Most of the cell lines are obtained from American Type Culture Collection (ATCC) derived from different human cancer types.
(§4) Cells are maintained in RPMI 1640 10% FBS, supplemented with 0.1 g/l penicillin and 0.1 g/l streptomycin sulphate and then incubated at 37° C., 5% CO2 and 98% humidity. For the experiments, cells were harvested from subconfluent cultures using trypsin and resuspended in fresh medium before plating.
(§5) Cells are seeded in 96 well microtiter plates, at 5×10^3 cells per well in aliquots of 195 μl medium, and they are allowed to attach to the plate surface by growing in drug free medium for 18 hours. Afterward, samples are added in aliquots of 5 μl in a ranging from 10 to 10^−8 μg/ml, dissolved in DMSO/EtOH/PBS (0.5:0.5:99). After 48 hours exposure, the antitumor effect are measured by the SRB methodology: cells are fixed by adding 50 μl of cold 50% (wt/vol) trichloroacetic acid (TCA) and incubating for 60 minutes at 4° C. Plates are washed with deionized water and dried. One hundred μl of SRB solution (0.4% wt/vol in 1% acetic acid) is added to each microtiter well and incubated for 10 minutes at room temperature. Unbound SRB is removed by washing with 1% acetic acid. Plates are air dried and bound stain is solubilized with Tris buffer. Optical densities are read on a automated spectrophotometric plate reader at a single wavelength of 490 nm.
(§6) The values for mean +/−SD of data from triplicate wells are calculated. Some parameters for cellular responses can be calculated: GI=growth inhibition, TGI=total growth inhibition (cytostatic effect) and LC=cell killing (cytotoxic effect).

HMEC1 = assay: as above; conditions: for TGI H-MEC-1: in M (unit assumed); for CC50: read-out: LC50 H-MEC-1
Excerpt: as §2, §3, §4, §5, §6

K-562 = assay: Inhibition of cells growth by colorimetric (SRB) assay, K-562; conditions: SRB assay, 48 hours exposure; for GI50: read-out: GI50 K-562; for CC50: read-out: LC50 K-562
How it was run: as §1

SK-MEL-28 = assay: Inhibition of cells growth by colorimetric (SRB) assay, SK-MEL-28; conditions: SRB assay, 48 hours exposure; for GI50: read-out: GI50 MEL-28; for CC50: read-out: LC50 MEL-28
How it was run: as §1

LoVo = assay: Inhibition of cells growth by colorimetric (SRB) assay, LoVo; conditions: SRB assay, 48 hours exposure; for GI50: read-out: GI50 LOVO; for CC50: read-out: LC50 LOVO
How it was run: as §1

LoVo-Dox = assay: Inhibition of cells growth by colorimetric (SRB) assay, LoVo-Dox; conditions: SRB assay, 48 hours exposure; for GI50: read-out: GI50 LOVO-DOX; for CC50: read-out: LC50 LOVO-DOX
How it was run: as §1

DU-145 = assay: Inhibition of cells growth by colorimetric (SRB) assay, DU-145; conditions: SRB assay, 48 hours exposure; for GI50: read-out: GI50 DU-145; for CC50: read-out: LC50 DU-145
How it was run: as §1

LNCaP = assay: Inhibition of cells growth by colorimetric (SRB) assay, LNCaP; conditions: for CC50: read-out: LC50 LN-caP, SRB assay, 48 hours exposure
How it was run: as §1

SK-BR-3 = assay: Inhibition of cells growth by colorimetric (SRB) assay, SK-BR-3; conditions: SRB assay, 48 hours exposure; for GI50: read-out: GI50 SK-BR-3; for CC50: read-out: LC50 SK-BR-3
How it was run: as §1

IGROV-1 = assay: Inhibition of cells growth by colorimetric (SRB) assay, IGROV-1; conditions: SRB assay, 48 hours exposure; for GI50: read-out: GI50 IGROV; for CC50: read-out: LC50 IGROV
How it was run: as §1

IGROV-ET = assay: Inhibition of cells growth by colorimetric (SRB) assay, IGROV-ET; conditions: SRB assay, 48 hours exposure; for GI50: read-out: GI50 IGROV-ET; for CC50: read-out: LC50 IGROV-ET
How it was run: as §1

SK-OV-3 = assay: Inhibition of cells growth by colorimetric (SRB) assay, SK-OV-3; conditions: for GI50: Homo sapiens, SK-OV-3, 48 h, read-out: GI50 SKOV-3, SRB assay, 48 hours exposure; for TGI SKOV-3 / CC50: SRB assay, 48 hours exposure; for CC50: read-out: LC50 SKOV-3
How it was run: as §1

PANC-1 = assay: Inhibition of cells growth by colorimetric (SRB) assay, PANC-1; conditions: SRB assay, 48 hours exposure; for GI50: read-out: GI50 PANC-1
How it was run: as §1

[2] = read-out: GI50 A-549, SRB assay, 48 hours exposure
[3] = read-out: LC50 A-549, SRB assay, 48 hours exposure
[4] = read-out: GI50 HT-29, SRB assay, 48 hours exposure
[5] = read-out: LC50 HT-29, SRB assay, 48 hours exposure
[6] = read-out: GI50 H-MEC-1, SRB assay, 48 hours exposure

GI50 (A-549; Homo sapiens, A549, 48 h, read-out: GI50 A-549, SRB assay, 48 hours exposure): ≥ 34.3 µM
GI50 (HT-29; Homo sapiens, HT-29, 48 h, read-out: HT-29 GI50, SRB assay, 48 hours exposure): ≥ 34.3 µM
SMILES: CSc1nccc2c(-c3ccccc3)c3cccnc3n12 [Compound 58]
CC50 (A-549; Homo sapiens, A549, 48 h, read-out: A-549 LC50, SRB assay, 48 hours exposure): ≥ 34.3 µM
A-549 TGI (A-549; SRB assay, 48 hours exposure): 3.43E−05
CC50 (HT-29; Homo sapiens, HT-29, 48 h, read-out: HT-29 LC50, SRB assay, 48 hours exposure): ≥ 34.3 µM
HT-29 TGI (HT-29; SRB assay, 48 hours exposure): 3.43E−05
CC50 at 48 h [1]: ≥ 34.3 µM
GI50 (HMEC1; Homo sapiens, HMEC-1, 48 h, read-out: GI50 H-MEC-1, SRB assay, 48 hours exposure): ≥ 34.3 µM
TGI H-MEC-1 (HMEC1; SRB assay, 48 hours exposure): 3.43E−05

SMILES: COc1nccc(-c2c3cccnc3n3c(N)nccc23)n1 [Compound 76]
TGI K-562 (K-562): 2.28E−06
GI50 (K-562): 1.02 µM
CC50 (K-562): 5.92 µM
TGI A-549 (A-549; SRB assay, 48 hours exposure): 1.49E−06
GI50 (A-549; [2]): 0.407 µM
CC50 (A-549; [3]): 7.7 µM
TGI MEL-28 (SK-MEL-28): 8.01E−07
GI50 (SK-MEL-28): 0.359 µM
CC50 (SK-MEL-28): 1.79 µM
TGI HT-29 (HT-29; SRB assay, 48 hours exposure): 3.42E−06
GI50 (HT-29; [4]): 0.77 µM
CC50 (HT-29; [5]): ≥ 34.2 µM
TGI LOVO (LoVo): 6.81E−07
GI50 (LoVo): 0.163 µM
CC50 (LoVo): ≥ 34.2 µM
TGI LOVO-DOX (LoVo-Dox): 3.42E−07
GI50 (LoVo-Dox): 0.773 µM
CC50 (LoVo-Dox): ≥ 34.2 µM
TGI DU-145 (DU-145): 1.42E−06
GI50 (DU-145): 0.542 µM
CC50 (DU-145): 3.42 µM
CC50 (LNCaP; Homo sapiens, LNCaP, 48 h): 3.08 µM
TGI LN-caP (LNCaP; SRB assay, 48 hours exposure): 4.55E−07
GI50 (LNCaP; read-out: GI50 LN-caP, SRB assay, 48 hours exposure): 0.0729 µM
TGI SK-BR-3 (SK-BR-3): 1.21E−06
GI50 (SK-BR-3): 0.541 µM
CC50 (SK-BR-3): 2.71 µM
TGI IGROV (IGROV-1): 1.77E−06
GI50 (IGROV-1): 0.725 µM
CC50 (IGROV-1): 3.42 µM
TGI IGROV-ET (IGROV-ET): 2.04E−06
GI50 (IGROV-ET): 0.649 µM
CC50 (IGROV-ET): ≥ 34.2 µM
GI50 (SK-OV-3): 1.22 µM
TGI SKOV-3 (SK-OV-3): 3.42E−06
CC50 (SK-OV-3): 34.3 µM
TGI PANC-1 (PANC-1): 2.15E−06
GI50 (PANC-1): 0.65 µM
TGI H-MEC-1 (HMEC1; SRB assay, 48 hours exposure): 2.27E−07
GI50 (HMEC1; [6]): 0.0777 µM
CC50 (HMEC1; SRB assay, 48 hours exposure): 1.56 µM

SMILES: CCOc1nccc(-c2c3cccnc3n3c(N)nccc23)n1 [Compound 77]
TGI K-562 (K-562): 3.26E−05
GI50 (K-562): 1.21 µM
CC50 (K-562): ≥ 32.6 µM
TGI A-549 (A-549; SRB assay, 48 hours exposure): 3.26E−05
GI50 (A-549; [2]): ≥ 32.6 µM
CC50 (A-549; [3]): > 32.6 µM
TGI MEL-28 (SK-MEL-28): 9.24E−07
GI50 (SK-MEL-28): 0.398 µM
CC50 (SK-MEL-28): 2.16 µM
TGI HT-29 (HT-29; SRB assay, 48 hours exposure): 3.26E−06
GI50 (HT-29; [4]): 0.829 µM
CC50 (HT-29; [5]): 3.26 µM
TGI LOVO (LoVo): 2.02E−06
GI50 (LoVo): 0.629 µM
CC50 (LoVo): ≥ 32.6 µM
TGI LOVO-DOX (LoVo-Dox): 2.79E−06
GI50 (LoVo-Dox): 0.702 µM
CC50 (LoVo-Dox): 15.1 µM
TGI DU-145 (DU-145): 1.68E−06
GI50 (DU-145): 0.63 µM
CC50 (DU-145): 27.8 µM
GI50 (LNCaP; Homo sapiens, LNCaP, 48 h, read-out: GI50 LN-caP, SRB assay, 48 hours exposure): 0.617 µM
CC50 (LNCaP; Homo sapiens, LNCaP, 48 h): 2.96 µM
TGI LN-caP (LNCaP; SRB assay, 48 hours exposure): 1.35E−06
TGI SK-BR-3 (SK-BR-3): 1.34E−06
GI50 (SK-BR-3): 0.643 µM
CC50 (SK-BR-3): 2.79 µM
TGI IGROV (IGROV-1): 2.74E−06
GI50 (IGROV-1): 1.3 µM
CC50 (IGROV-1): ≥ 32.6 µM
TGI IGROV-ET (IGROV-ET): 1.61E−06
GI50 (IGROV-ET): 0.555 µM
CC50 (IGROV-ET): ≥ 32.6 µM
GI50 (SK-OV-3): 1.3 µM
TGI SKOV-3 (SK-OV-3): 3.26E−06
CC50 (SK-OV-3): 3.26 µM
TGI PANC-1 (PANC-1): 7.80E−06
GI50 (PANC-1): 1.16 µM
CC50 (PANC-1; read-out: LC50 PANC-1): ≥ 32.6 µM
TGI H-MEC-1 (HMEC1; SRB assay, 48 hours exposure): 3.21E−07
GI50 (HMEC1; [6]): 0.206 µM
CC50 (HMEC1; SRB assay, 48 hours exposure): 1.26 µM
